Data published in ChEMBL document CHEMBL1759974, “Discovery of triazine-benzimidazoles as selective inhibitors of mTOR” (Bioorg Med Chem Lett, 2011).
Converted amounts (≈) assume the structure as drawn. Blank lines part the entries; values can stand above or below the molecule they belong to. The source made the active and inactive calls. No cut-off for these calls is given here.

Columns and labels:
[1] = Plasma protein binding in Sprague-Dawley rat at 1 mg/kg, iv and 2 mg/kg, po; type: ADME, organism-based; conditions: read-out: PPB (converted)
[2] = Oral bioavailability in Sprague-Dawley rat at 2 mg/kg; type: ADME, organism-based; conditions: in vivo
[3] = target: T1, Phosphatidylinositol 4,5-bisphosphate 3-kinase catalytic subunit delta isoform (Homo sapiens, UniProt O00329)
T1 sequence (O00329 whole entry): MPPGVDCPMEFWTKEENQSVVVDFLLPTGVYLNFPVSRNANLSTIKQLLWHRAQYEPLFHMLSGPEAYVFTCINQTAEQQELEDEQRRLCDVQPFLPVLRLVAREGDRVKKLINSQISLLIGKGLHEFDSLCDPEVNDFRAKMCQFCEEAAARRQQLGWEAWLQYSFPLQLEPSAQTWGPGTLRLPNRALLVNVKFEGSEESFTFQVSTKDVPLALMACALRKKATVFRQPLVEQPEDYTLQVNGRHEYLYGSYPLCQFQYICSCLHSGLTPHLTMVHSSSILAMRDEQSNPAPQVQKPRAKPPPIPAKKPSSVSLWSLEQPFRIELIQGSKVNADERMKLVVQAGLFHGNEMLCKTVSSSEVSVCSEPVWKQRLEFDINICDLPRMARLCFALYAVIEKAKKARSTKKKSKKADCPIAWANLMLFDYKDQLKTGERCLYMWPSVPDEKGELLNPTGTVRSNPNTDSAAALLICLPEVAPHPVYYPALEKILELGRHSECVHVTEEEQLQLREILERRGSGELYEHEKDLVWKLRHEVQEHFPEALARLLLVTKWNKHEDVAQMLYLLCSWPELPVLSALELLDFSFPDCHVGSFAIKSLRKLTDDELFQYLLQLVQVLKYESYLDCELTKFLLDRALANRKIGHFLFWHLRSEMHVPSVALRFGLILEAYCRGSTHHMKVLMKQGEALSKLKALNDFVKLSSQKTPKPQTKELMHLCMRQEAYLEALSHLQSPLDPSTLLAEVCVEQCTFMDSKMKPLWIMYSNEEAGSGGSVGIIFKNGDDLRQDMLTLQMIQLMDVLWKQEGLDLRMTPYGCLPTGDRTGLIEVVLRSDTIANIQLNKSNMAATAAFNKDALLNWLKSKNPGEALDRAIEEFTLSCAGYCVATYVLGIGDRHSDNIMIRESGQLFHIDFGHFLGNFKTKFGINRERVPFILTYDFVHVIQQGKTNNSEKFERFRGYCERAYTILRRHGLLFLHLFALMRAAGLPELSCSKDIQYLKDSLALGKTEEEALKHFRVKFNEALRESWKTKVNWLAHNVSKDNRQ

[4] = Half life in Sprague-Dawley rat at 0.5 mg/kg, iv; type: ADME, organism-based; parameters: dose 0.5 mg/kg, route intravenous; conditions: in vivo
[5] = Volume of distribution at steady state in Sprague-Dawley rat at 0.5 mg/kg, iv; type: ADME, organism-based; parameters: dose 0.5 mg/kg, route intravenous; conditions: in vivo, read-out: Vdss
[6] = Clearance in Sprague-Dawley rat at 0.5 mg/kg, iv; type: ADME, organism-based; parameters: dose 0.5 mg/kg, route intravenous; conditions: in vivo
[7] = target: T2, Serine/threonine-protein kinase mTOR (Homo sapiens, UniProt P42345)
[8] = target: T2, Serine/threonine-protein kinase mTOR; remark: listed apart in the source
[9] = target: T2, Serine/threonine-protein kinase mTOR; remark: listed apart in the source
Description: Inhibition of mTOR in human U-87 cells assessed as inhibition of phosphorylation of AKT at S473

[10] = tested on: Rattus norvegicus; assay: AUC in Sprague-Dawley rat at 0.5 mg/kg, iv; type: ADME, organism-based, Plasma; parameters: dose 0.5 mg/kg, route intravenous; conditions: in vivo
[11] = target: Phosphatidylinositol 4,5-bisphosphate 3-kinase catalytic subunit gamma isoform (Homo sapiens, UniProt P48736)
Sequence of Phosphatidylinositol 4,5-bisphosphate 3-kinase catalytic subunit gamma isoform (P48736 whole entry, canonical isoform): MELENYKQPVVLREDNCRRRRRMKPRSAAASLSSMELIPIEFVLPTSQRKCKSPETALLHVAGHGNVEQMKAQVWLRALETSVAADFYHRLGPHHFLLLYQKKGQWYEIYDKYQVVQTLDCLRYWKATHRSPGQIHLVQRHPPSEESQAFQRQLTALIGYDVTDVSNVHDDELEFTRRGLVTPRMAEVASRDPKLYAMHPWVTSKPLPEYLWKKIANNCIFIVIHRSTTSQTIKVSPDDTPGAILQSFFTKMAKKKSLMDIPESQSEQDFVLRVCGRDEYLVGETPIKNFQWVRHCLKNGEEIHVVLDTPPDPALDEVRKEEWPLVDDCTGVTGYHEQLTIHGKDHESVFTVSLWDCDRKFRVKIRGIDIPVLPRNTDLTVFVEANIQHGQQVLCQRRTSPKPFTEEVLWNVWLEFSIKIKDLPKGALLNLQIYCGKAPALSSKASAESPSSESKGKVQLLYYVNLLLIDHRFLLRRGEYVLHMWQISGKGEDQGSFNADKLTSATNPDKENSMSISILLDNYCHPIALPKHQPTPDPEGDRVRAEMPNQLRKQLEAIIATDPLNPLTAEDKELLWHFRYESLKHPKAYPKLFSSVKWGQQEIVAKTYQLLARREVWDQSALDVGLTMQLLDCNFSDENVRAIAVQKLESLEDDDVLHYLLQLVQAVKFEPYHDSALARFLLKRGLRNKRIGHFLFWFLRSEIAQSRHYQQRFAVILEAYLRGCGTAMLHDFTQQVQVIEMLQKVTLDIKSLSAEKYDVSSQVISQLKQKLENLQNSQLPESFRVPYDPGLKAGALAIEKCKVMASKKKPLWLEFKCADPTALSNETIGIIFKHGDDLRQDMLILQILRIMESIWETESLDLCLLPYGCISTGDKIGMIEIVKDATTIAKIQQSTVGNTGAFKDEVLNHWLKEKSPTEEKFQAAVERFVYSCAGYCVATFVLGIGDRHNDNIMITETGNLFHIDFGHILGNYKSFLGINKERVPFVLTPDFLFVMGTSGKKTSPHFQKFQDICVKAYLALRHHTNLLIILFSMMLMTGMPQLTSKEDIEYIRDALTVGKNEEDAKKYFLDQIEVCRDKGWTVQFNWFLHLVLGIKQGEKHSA

[12] = target: Phosphatidylinositol 4,5-bisphosphate 3-kinase catalytic subunit alpha isoform (Homo sapiens, UniProt P42336)
Sequence of Phosphatidylinositol 4,5-bisphosphate 3-kinase catalytic subunit alpha isoform (P42336 whole entry, canonical isoform): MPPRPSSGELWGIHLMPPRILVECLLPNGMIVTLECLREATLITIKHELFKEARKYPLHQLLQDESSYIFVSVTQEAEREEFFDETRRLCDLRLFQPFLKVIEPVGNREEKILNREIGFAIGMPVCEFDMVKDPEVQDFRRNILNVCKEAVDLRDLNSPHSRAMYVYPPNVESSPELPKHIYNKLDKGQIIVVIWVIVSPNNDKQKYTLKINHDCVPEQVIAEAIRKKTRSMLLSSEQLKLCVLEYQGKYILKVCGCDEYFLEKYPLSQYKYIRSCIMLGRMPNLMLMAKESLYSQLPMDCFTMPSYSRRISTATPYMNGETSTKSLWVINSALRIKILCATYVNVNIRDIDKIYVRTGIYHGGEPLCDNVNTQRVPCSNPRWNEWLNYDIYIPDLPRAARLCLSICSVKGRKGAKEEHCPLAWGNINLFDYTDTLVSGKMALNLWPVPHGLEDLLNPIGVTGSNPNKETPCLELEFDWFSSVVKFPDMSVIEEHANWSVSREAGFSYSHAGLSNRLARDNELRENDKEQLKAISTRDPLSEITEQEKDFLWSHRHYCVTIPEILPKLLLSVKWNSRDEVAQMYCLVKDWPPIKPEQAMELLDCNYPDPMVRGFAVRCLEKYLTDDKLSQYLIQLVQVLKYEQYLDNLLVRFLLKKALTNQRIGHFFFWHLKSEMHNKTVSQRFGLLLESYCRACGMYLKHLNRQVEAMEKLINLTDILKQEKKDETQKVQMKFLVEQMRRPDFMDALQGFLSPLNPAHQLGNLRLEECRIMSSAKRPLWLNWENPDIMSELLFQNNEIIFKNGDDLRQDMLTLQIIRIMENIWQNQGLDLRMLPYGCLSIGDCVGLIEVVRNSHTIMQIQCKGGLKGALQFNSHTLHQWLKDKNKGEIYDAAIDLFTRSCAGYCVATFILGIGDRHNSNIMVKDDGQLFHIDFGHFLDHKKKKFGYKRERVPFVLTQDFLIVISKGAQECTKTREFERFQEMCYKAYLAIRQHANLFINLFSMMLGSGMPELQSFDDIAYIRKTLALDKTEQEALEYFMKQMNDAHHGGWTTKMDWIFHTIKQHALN

[13] = target: Phosphatidylinositol 4,5-bisphosphate 3-kinase catalytic subunit beta isoform (Homo sapiens, UniProt P42338)
Sequence of Phosphatidylinositol 4,5-bisphosphate 3-kinase catalytic subunit beta isoform (P42338 whole entry, canonical isoform): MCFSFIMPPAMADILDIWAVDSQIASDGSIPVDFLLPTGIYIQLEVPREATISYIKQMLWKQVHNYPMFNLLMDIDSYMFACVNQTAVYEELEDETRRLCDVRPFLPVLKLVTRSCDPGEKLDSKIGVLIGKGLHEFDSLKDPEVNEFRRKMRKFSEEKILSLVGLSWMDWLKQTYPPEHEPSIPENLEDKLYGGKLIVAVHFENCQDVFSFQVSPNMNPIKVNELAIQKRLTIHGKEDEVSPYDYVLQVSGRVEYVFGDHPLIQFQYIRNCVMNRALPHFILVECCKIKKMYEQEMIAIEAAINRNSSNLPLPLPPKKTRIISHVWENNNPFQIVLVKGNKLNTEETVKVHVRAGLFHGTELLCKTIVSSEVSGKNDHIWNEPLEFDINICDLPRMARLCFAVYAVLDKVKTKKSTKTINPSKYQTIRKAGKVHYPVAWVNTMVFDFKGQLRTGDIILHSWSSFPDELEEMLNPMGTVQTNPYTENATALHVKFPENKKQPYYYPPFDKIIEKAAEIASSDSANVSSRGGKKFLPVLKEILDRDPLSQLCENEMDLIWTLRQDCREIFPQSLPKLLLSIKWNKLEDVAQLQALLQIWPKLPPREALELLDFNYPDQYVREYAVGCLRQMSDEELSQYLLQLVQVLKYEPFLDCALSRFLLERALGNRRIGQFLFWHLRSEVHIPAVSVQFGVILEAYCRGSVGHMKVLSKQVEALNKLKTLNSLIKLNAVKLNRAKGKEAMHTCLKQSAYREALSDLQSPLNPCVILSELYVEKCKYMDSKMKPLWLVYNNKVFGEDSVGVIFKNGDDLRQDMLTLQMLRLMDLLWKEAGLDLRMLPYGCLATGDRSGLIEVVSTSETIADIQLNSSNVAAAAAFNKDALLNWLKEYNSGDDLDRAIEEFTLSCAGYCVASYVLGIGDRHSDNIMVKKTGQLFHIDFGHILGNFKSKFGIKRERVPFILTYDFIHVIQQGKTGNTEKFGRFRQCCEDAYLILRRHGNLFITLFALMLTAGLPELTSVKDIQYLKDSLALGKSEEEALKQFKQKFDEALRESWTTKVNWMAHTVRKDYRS

[14] = tested on: HCC1954; assay: Antiproliferative activity against human HCC1954 harboring PI3K/p53 gene mutation/amplification at 1 uM after 72 hrs by Ambit assay in presence of 10% serum; type: functional, cell-based; conditions: HCC1954, 72 h
[15] = tested on: NCI-H82; assay: Antiproliferative activity against human NCI-H82 harboring CMYC/RB gene mutation/amplification at 1 uM after 72 hrs by Ambit assay in presence of 10% serum; type: functional, cell-based; conditions: NCI-H82, 72 h
[16] = tested on: NCI-H1975; assay: Antiproliferative activity against human NCI-H1975 harboring PI3K/EGFR/p53 gene mutation/amplification at 1 uM after 72 hrs by Ambit assay in presence of 10% serum; type: functional, cell-based; conditions: NCI-H1975, 72 h
[17] = tested on: A-375; assay: Antiproliferative activity against human A375 cells harboring BRAF gene mutation/amplification at 1 uM after 72 hrs by Ambit assay in presence of 10% serum; type: functional, cell-based; conditions: A-375, 72 h
[18] = tested on: CAL-51; assay: Antiproliferative activity against human CAL51 harboring PI3K/PTEN gene mutation/amplification at 1 uM after 72 hrs by Ambit assay in presence of 10% serum; type: functional, cell-based; conditions: CAL-51, 72 h
[19] = tested on: SK-MEL-28; assay: Antiproliferative activity against human SK-MEL-28 harboring BRAF gene mutation/amplification at 1 uM after 72 hrs by Ambit assay in presence of 10% serum; type: functional, cell-based; conditions: SK-MEL-28, 72 h
[20] = tested on: Calu-6; assay: Antiproliferative activity against human Calu6 harboring KRAS gene mutation/amplification at 1 uM after 72 hrs by Ambit assay in presence of 10% serum; type: functional, cell-based; conditions: Calu-6, 72 h
[21] = tested on: NCI-H2009; assay: Antiproliferative activity against human NCI-H2009 harboring KRAS/RB/p53 gene mutation/amplification at 1 uM after 72 hrs by Ambit assay in presence of 10% serum; type: functional, cell-based; conditions: NCI-H2009, 72 h
[22] = target: TGF-beta receptor type-2 (Homo sapiens) (UniProt P37173); assay: Inhibition of TGFBR2 assessed as inhibition of TGFbeta induced SMAD phosphorylation at 1 uM relative to control
Sequence of TGF-beta receptor type-2 (Homo sapiens) (P37173 whole entry): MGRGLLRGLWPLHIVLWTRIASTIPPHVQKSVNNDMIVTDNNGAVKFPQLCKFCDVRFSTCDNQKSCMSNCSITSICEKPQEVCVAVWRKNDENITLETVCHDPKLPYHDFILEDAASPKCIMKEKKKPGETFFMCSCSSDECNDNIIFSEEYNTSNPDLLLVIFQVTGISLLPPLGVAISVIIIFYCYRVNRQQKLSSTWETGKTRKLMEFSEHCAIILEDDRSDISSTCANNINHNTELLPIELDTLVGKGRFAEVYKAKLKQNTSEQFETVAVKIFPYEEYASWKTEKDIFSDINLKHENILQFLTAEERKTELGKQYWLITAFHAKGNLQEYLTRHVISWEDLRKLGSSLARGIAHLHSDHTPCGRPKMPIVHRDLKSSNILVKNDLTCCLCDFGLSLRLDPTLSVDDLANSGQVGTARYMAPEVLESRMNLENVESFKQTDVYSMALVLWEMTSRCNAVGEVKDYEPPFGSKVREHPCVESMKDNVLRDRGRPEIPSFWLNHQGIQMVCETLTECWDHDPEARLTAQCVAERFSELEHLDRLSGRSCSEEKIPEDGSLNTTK

[23] = tested on: DU-4475; assay: Antiproliferative activity against human DU4475 harboring BRAF/APC/RB gene mutation/amplification at 1 uM after 72 hrs by Ambit assay in presence of 10% serum; type: functional, cell-based; conditions: DU-4475, 72 h
[24] = tested on: MDA-MB-468; assay: Antiproliferative activity against human MDA-MB-468 harboring PTEN/EGFR/p53 gene mutation/amplification at 1 uM after 72 hrs by Ambit assay in presence of 10% serum; type: functional, cell-based; conditions: MDA-MB-468, 72 h
[25] = tested on: UACC-893; assay: Antiproliferative activity against human UACC-893 cells harboring HER2/PI3K/p53 mutant gene at 1 uM after 72 hrs by Ambit assay in presence of 10% serum; type: functional, cell-based; conditions: UACC-893, 72 h
[26] = tested on: A549; assay: Antiproliferative activity against human A549 cells harboring KRAS/LKB1 gene mutation/amplification at 1 uM after 72 hrs by Ambit assay in presence of 10% serum; type: functional, cell-based; conditions: A549, 72 h
[27] = target: TGF-beta receptor type-2 (Homo sapiens) (UniProt P37173); assay: Inhibition of TGFBR2 assessed as inhibition of TGFbeta induced SMAD phosphorylation at 10 uM relative to control
[28] = tested on: MDA-MB-231; assay: Antiproliferative activity against human MDA-MB-231 harboring KRAS/BRAF/p53 gene mutation/amplification at 1 uM after 72 hrs by Ambit assay in presence of 10% serum; type: functional, cell-based; conditions: MDA-MB-231, 72 h
[29] = Antiproliferative activity against human U87MG harboring PTEN gene mutation/amplification at 1 uM after 72 hrs by Ambit assay in presence of 10% serum; type: functional, U-87MG ATCC; conditions: U-87 MG
[30] = tested on: COLO-829; assay: Antiproliferative activity against human COLO829 harboring BRAF/PTEN gene mutation/amplification at 1 uM after 72 hrs by Ambit assay in presence of 10% serum; type: functional, cell-based; conditions: COLO-829, 72 h
[31] = tested on: BT-474; assay: Antiproliferative activity against human BT474 cells harboring HER2/PI3K/p53 mutant gene at 1 uM after 72 hrs by Ambit assay in presence of 10% serum; type: functional, cell-based; conditions: BT-474, 72 h
[32] = tested on: NCI-H460; assay: Antiproliferative activity against human NCI-H460 harboring PI3K/KRAS/LKB1 gene mutation/amplification at 1 uM after 72 hrs by Ambit assay in presence of 10% serum; type: functional, cell-based; conditions: NCI-H460, 72 h
[33] = tested on: MCF7; assay: Antiproliferative activity against human MCF7 harboring PI3K gene mutation/amplification at 1 uM after 72 hrs by Ambit assay in presence of 10% serum; type: functional, cell-based; conditions: MCF7, 72 h
[34] = Solubility of compound in 0.01 N HCL; type: physicochemical; conditions: buffer
[35] = tested on: Rattus norvegicus; assay: AUC in Sprague-Dawley rat at 1 mg/kg, iv; type: ADME, organism-based, Plasma; parameters: dose 1 mg/kg, route intravenous; conditions: in vivo
[36] = Volume of distribution at steady state in Sprague-Dawley rat at 1 mg/kg, iv and 2 mg/kg, po; type: ADME, organism-based; conditions: in vivo, read-out: Vdss
[37] = Intrinsic clearance in human liver microsomes; type: ADME, Microsome
[38] = tested on: Rattus norvegicus; assay: In vivo clearance in bile-duct cannulated rat assessed as multiple glucuronidation metabolites in bile by LC/MS analysis; type: ADME, organism-based
[39] = tested on: Liver; assay: Intrinsic clearance in rat liver hepatocytes; type: ADME, cell-based, Hepatocyte
[40] = Intrinsic clearance in rat liver microsomes; type: ADME, Microsome
[41] = Half life in Sprague-Dawley rat at 1 mg/kg, iv; type: ADME, organism-based; parameters: dose 1 mg/kg, route intravenous; conditions: in vivo
[42] = Clearance in Sprague-Dawley rat at 1 mg/kg, iv and 2 mg/kg, po; type: ADME, organism-based; conditions: in vivo

fraction unbound [1]: 0.016
bioavailability [2]: 0%
IC50 [3]: 4000 nM
half-life [4]: 27 min
Vd [5]: 1.5 L/kg
clearance [6]: 41.7 mL/min/kg
IC50 [7]: 600 nM
IC50 [8]: 31 nM
IC50 [9]: 73 nM
AUC [10]: 559 nM
IC50 [11]: 3600 nM
IC50 [12]: 6200 nM
IC50 [13]: 8500 nM
Structure (SMILES): Cc1nc(NCC#N)nc(-n2c(Nc3ccn[nH]3)nc3ccccc32)n1

IC50 [14]: 220 nM
IC50 [15]: 430 nM
IC50 [16]: 600 nM
IC50 [17]: 380 nM
IC50 [19]: 470 nM
IC50 [20]: 590 nM
IC50 [21]: 420 nM
inhibition [22]: 17%
IC50 [24]: 690 nM
IC50 [26]: 430 nM
inhibition [27]: inactive
IC50 [28]: 270 nM
IC50 [30]: 340 nM
IC50 [31]: 200 nM
IC50 [32]: 460 nM
IC50 [33]: 540 nM
Structure (SMILES): Cc1nc(NCC#N)nc(-n2c(Nc3cc[nH]n3)nc3ccccc32)n1
IC50 [18]: 320 nM
IC50 [23]: 530 nM
IC50 [25]: 140 nM
IC50 [29]: 350 nM

fraction unbound [1]: 0.028
solubility [34]: 37 µg/mL (≈ 120 µM)
bioavailability [2]: 6.3%
AUC [35]: 1680 nM
IC50 [3]: 510 nM
IC50 [7]: 390 nM
IC50 [8]: 27 nM
IC50 [9]: 55 nM
Vd [36]: 1.1 L/kg
microsomal CLint [37]: 79 µL/min/mg
Activity [38]: Active
CL [39]: 28 µL/min/mg
microsomal CLint [40]: 52 µL/min/mg
half-life [41]: 43.2 min
IC50 [12]: 800 nM
clearance [42]: 31.7 mL/min/kg
IC50 [13]: 870 nM
Structure (SMILES): Cc1nc(N)nc(-n2c(Nc3ccn[nH]3)nc3ccccc32)n1
